Article PMC12022153, “Sustainable approach for synthesis of new coumarin-linked Schiff bases in DABCO-based ionic liquid and their identification as aldose reductase inhibitors” (Scientific Reports, 2025)
Where two headings read alike, the source gives them in different places.

How the values were obtained:
aldose reductase (ALR2) [1] = molecular target: T1, aldose reductase (ALR2) (Bos taurus, UniProt P16116); test: Enzyme inhibition assay for ALR2 (aldose reductase), NADPH absorbance at 340 nm; assay type: biochemical, bovine; details: for selectivity of inhibition, ALR2 versus ALR1: comparison of inhibitory activity against both enzymes; for IC50: read-out: IC50 ± SEM ALR2 Inhibition; for inhibition at 100 µM: less than 50% so no IC50
T1 construct: ALR2 was extracted from the eyes while ALR1 was obtained from the kidneys; from tissue; host or cells: bovine eyes
Protocol: (§1) The ALR2 activity was estimated through measuring decrease in absorbance of NADPH in the assay at 340 nm on a spectrophotometer (FLUOstar Omega BMG LABTECH, Germany). The enzyme inhibition assay was carried out via following methods of ALR2 inhibition of our recent study. During the assay, total assay volume was kept 100 consisting of 20 µL of 100 mM sodium phosphate buffer at pH 6.2, 30 µL of the enzyme ([…]; protein concentration 12 µg mL^−1), 10 µL of test compound, and 20 µL of 1 mM substrate DL-glyceraldehyde. First, the reaction mixture was incubated without co-factor (NADPH) then reaction was initiated by addition of 20 µL of NADPH solution of 0.1 mM and monitored for five minutes. The change of absorbance was noted as pre-read and after-read, the percent inhibition was calculated for the tested compounds and standard inhibitor. For ALR1 (aldehyde reductase), sodium-D-glucuronate was employed as a substrate and valproic acid as a standard inhibitor. […] Otherwise, identical protocols were adopted for the ALR1 and ALR2 assays. First, tests compounds were solubilized in dimethyl sulfoxide (DMSO) (100%) and dilutions were prepared with deionized water to keep the concentration of DMSO at 0.1% during the assay. Initially, test compounds were tested at 100 µM. […] The logarithms of the inhibitor concentration were plotted versus the remaining activity of the enzyme, and IC50 values were calculated using non-linear regression analysis in GraphPad Prism Version 8.
(§2) Based on these reports, a library of coumarin-linked Schiff base analogues were designed. […] Compounds were also checked for selectivity via testing their inhibitory potency against ALR1 enzyme. Both aldose reductase enzymes (ALR2 and ALR1) were isolated from bovine; ALR2 was extracted from the eyes while ALR1 was obtained from the kidneys.

[2] = molecular target: T2, aldehyde reductase (ALR1) (Bos taurus, UniProt Q3ZCJ2); test: Enzyme inhibition assay for ALR1 (aldehyde reductase), NADPH absorbance at 340 nm; assay type: biochemical, bovine; details: for inhibition at 100 µM: less than 50% so no IC50; for IC50: substrate sodium-D-glucuronate, NADPH, standard valproic acid, value ± SEM
T2 construct: ALR2 was extracted from the eyes while ALR1 was obtained from the kidneys; from tissue; host or cells: bovine kidneys
Protocol: as §1, §2

aldose reductase (ALR2) [3] = details: cited from earlier work
[4] = test compounds tested at 100 µM, read-out: % Inhibition ALR1
[5] = test compounds tested at 100 µM, read-out: % Inhibition ALR2

T2 sequence (Q3ZCJ2 whole entry): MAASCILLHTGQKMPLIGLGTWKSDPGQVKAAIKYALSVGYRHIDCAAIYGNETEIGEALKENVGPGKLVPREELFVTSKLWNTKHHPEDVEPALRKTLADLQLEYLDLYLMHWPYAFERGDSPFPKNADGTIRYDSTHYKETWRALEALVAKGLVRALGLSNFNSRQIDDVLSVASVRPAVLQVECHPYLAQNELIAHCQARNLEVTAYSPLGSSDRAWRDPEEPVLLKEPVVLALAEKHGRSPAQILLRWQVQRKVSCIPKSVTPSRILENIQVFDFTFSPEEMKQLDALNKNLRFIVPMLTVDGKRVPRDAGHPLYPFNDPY

selectivity of inhibition, ALR2 versus ALR1 (aldose reductase (ALR2) [1]) | IC50 (aldose reductase (ALR2) [1]) | inhibition at 100 µM [2, 4] | IC50 [2] | Compound | other results
selective inhibition against ALR2 enzyme | 11.2 ± 0.029 µM | 45.1% | – | O=c1oc2ccccc2cc1COc1ccccc1C=NNc1ccccc1 [Compound 5, 3-((2′-((2-Phenylhydrazineylidene)methyl)phenoxy)methyl)-2H-chromen-2-one] | –
non-selective inhibitions | 4.07 ± 0.083 µM | – | 11.23 ± 0.065 µM | O=c1oc2ccccc2cc1COc1ccccc1C=NNc1ccc(Cl)c(Cl)c1 [Compound 21, 3-((2′-((2-(3′′,4′′-Dichlorophenyl)hydrazineylidene)methyl)phenoxy)methyl)-2H-chromen-2-one] | –
selective inhibition against ALR2 enzyme | 2.2 ± 0.024 µM | 45.2% | – | O=c1oc2ccccc2cc1COc1ccccc1C=NNc1ccc(F)cc1 [Compound 6, 3-((2′-((2-(4′′-Fluorophenyl)hydrazineylidene)methyl)phenoxy)methyl)-2H-chromen-2-one] | –
non-selective inhibitions | 7.63 ± 0.061 µM | – | 3.29 ± 0.064 µM | Cc1ccc(NN=Cc2ccccc2OCc2cc3ccccc3oc2=O)c(C)c1 [Compound 20, 3-((2′-((2-(2′′,4′′-Dimethylphenyl)hydrazineylidene)methyl)phenoxy)methyl)-2H-chromen-2-one] | –
– | 2.84 ± 0.032 µM | – | 4.07 ± 0.078 µM | O=c1oc2ccccc2cc1COc1ccccc1C=NNc1ccc(Cl)cc1 [Compound 9, 3-((2′-((2-(4′′-Chlorophenyl)hydrazineylidene)methyl)phenoxy)methyl)-2H-chromen-2-one] | –
non-selective inhibitions | 10.19 ± 0.034 µM | – | 4.21 ± 0.023 µM | COc1ccc(NN=Cc2ccccc2OCc2cc3ccccc3oc2=O)cc1 [Compound 15, 3-((2′-((2-(4′′-Methoxyphenyl)hydrazineylidene)methyl)phenoxy)methyl)-2H-chromen-2-one] | –
selective inhibition against ALR2 enzyme | 1.61 ± 0.049 µM | 37% | – | Cc1cccc(NN=Cc2ccccc2OCc2cc3ccccc3oc2=O)c1C [Compound 19, 3-((2′-((2-(2′′,3′′-Dimethylphenyl)hydrazineylidene)methyl)phenoxy)methyl)-2H-chromen-2-one] | –

Further lines, the molecule ahead of its results:

Compound | selectivity of inhibition, ALR2 versus ALR1 (aldose reductase (ALR2) [1]) | IC50 (aldose reductase (ALR2) [1]) | inhibition at 100 µM [2, 4] | IC50 [2] | other results
O=c1oc2ccccc2cc1COc1ccccc1C=NNc1ccccc1Cl [Compound 7, 3-((2′-((2-(2′′-Chlorophenyl)hydrazineylidene)methyl)phenoxy)methyl)-2H-chromen-2-one] | – | 3.61 ± 0.016 µM | – | 14.49 ± 0.052 µM | –
Cc1ccc(NN=Cc2ccccc2OCc2cc3ccccc3oc2=O)cc1 [Compound 13, 3-((2′-((2-(p-Tolyl)hydrazineylidene)methyl)phenoxy)methyl)-2H-chromen-2-one] | selective inhibition against ALR2 enzyme | 4.64 ± 0.045 µM | 34.2% | – | –
O=c1oc2ccccc2cc1COc1ccccc1C=NNc1ccccc1[N+](=O)[O-] [Compound 17, 3-((2′-((2-(2′′-Nitrophenyl)hydrazineylidene)methyl)phenoxy)methyl)-2H-chromen-2-one] | – | – | 33.2% | – | inhibition at 100 µM (aldose reductase (ALR2) [1]; [5]): 45.6%
O=c1oc2ccccc2cc1COc1ccccc1C=NNc1cccc(Cl)c1 [Compound 8, 3-((2′-((2-(3′′-Chlorophenyl)hydrazineylidene)methyl)phenoxy)methyl)-2H-chromen-2-one] | – | 2.94 ± 0.083 µM | – | 5.96 ± 0.035 µM | –
O=c1oc2ccccc2cc1COc1ccccc1C=NNc1cccc([N+](=O)[O-])c1 [Compound 18, 3-((2′-((2-(3′′-Nitrophenyl)hydrazineylidene)methyl)phenoxy)methyl)-2H-chromen-2-one] | – | – | 35.7% | – | inhibition at 100 µM (aldose reductase (ALR2) [1]; [5]): 42.9%
Cc1ccccc1NN=Cc1ccccc1OCc1cc2ccccc2oc1=O [Compound 12, 3-((2′-((2-(o-Tolyl)hydrazineylidene)methyl)phenoxy)methyl)-2H-chromen-2-one] | selective inhibition against ALR2 enzyme | 3.66 ± 0.068 µM | 37.9% | – | –
C/C(=N\NC(=S)Nc1ccccc1F)c1cc2ccccc2oc1=O [XV] | – | – | – | – | selectivity relative to ALR1 enzyme (aldose reductase (ALR2) [3]): high selectivity; IC50 (aldose reductase (ALR2) [3]; coumarin-tethered thiosemicarbazones, read-out: IC50 ALR2 / aldose reductase inhibition): 2.07 µM
CCc1ccccc1NN=Cc1ccccc1OCc1cc2ccccc2oc1=O [Compound 14, 3-((2′-((2-(2′′-Ethylphenyl)hydrazineylidene)methyl)phenoxy)methyl)-2H-chromen-2-one] | non-selective inhibitions | 6.52 ± 0.077 µM | – | 12.9 ± 0.013 µM | –
O=c1oc2ccccc2cc1COc1ccccc1C=NNc1ccc(Br)cc1 [Compound 11, 3-((2′-((2-(4′′-Bromophenyl)hydrazineylidene)methyl)phenoxy)methyl)-2H-chromen-2-one] | – | – | < 50% | – | inhibition at 100 µM (aldose reductase (ALR2) [1]; [5]): < 50%
N#Cc1ccc(NN=Cc2ccccc2OCc2cc3ccccc3oc2=O)cc1 [Compound 16, 4′′-(2-(2′-((2-Oxo-2H-chromen-3-yl)methoxy)benzylidene)hydrazineyl)benzonitrile] | – | – | 42.9% | – | inhibition at 100 µM (aldose reductase (ALR2) [1]; [5]): 39.2%
CCCC(CCC)C(=O)O [Valproic acid, reference compound] | – | – | – | 57.4 ± 0.89 µM | –
O=c1oc2ccccc2cc1COc1ccccc1C=NNc1ccc([N+](=O)[O-])cc1[N+](=O)[O-] [Compound 22, 3-((2′-((2-(2′′,4′′-Dinitrophenyl)hydrazineylidene)methyl)phenoxy)methyl)-2H-chromen-2-one] | – | – | – | – | inhibition at 100 µM (aldose reductase (ALR2) [1]; read-out: % Inhibition ALR2, test compounds tested at 100 µM): < 50%; inhibition at 100 µM ([2]; read-out: % Inhibition ALR1, test compounds tested at 100 µM): < 50%
O=c1oc2ccccc2cc1COc1ccccc1C=NNc1ccccc1Br [Compound 10, 3-((2′-((2-(2′′-Bromophenyl)hydrazineylidene)methyl)phenoxy)methyl)-2H-chromen-2-one] | – | – | < 50% | – | inhibition at 100 µM (aldose reductase (ALR2) [1]; [5]): < 50%
